# “And” between values parts separate entries of the source, which are not always exact repeats. Equal entries are not always repeated. Where two headings read alike, the source gives them in different places.
# System: red blood cells
# Assay type: cell-based
# Protocol: In another assay, the rabbit polyclonal sera may be reacted with treated red blood cells. After washing off unbound antibody, a FITC labeled goat anti-rabbit Fab′2 fragment (anti H+L chains, Caltag) is added. The binding of FITC label to the red blood cells correlates with the amount of acridine bound to the red blood cell surface, and is assessed by FACScan™ analysis (Becton, Dickinson and Co., NJ). The relative modification of the red blood cells is determined from the FACScan™ mean fluorescence value.
# A 20 mL sample of leukoreduced whole blood (Blood Source, Sacramento, Calif.) was centrifuged at 4,100×g for 5 minutes at room temperature in each of four 50 mL centrifuge tubes. The supernatant was removed from each tube to provide red cell concentrate (RCC). […] For each washed RCC, cells were resuspended in 5 mL of the solution used for washing. This is now referred to as the RBC test sample. […] These samples were incubated for 20 hours at room temperature. After incubation, the RBC were washed in BBS (Blood Bank Saline, 0.9% saline, unbuffered, Fisher Scientific) and were diluted to a final hematocrit of 4%. A 25 μL aliquot of each was mixed with 15 μL of rabbit polyclonal anti-acridine sera diluted 1:100 in BBS and the mixture was incubated at 37° C. for 30 minutes. The cells were subsequently washed with 1.5 mL BBS. After washing was complete, the cells were mixed with 50 μL of FITC labeled goat anti-rabbit Fab′2 fragment (1:64 dilution in BBS) and incubated at 37° C. for 30 minutes. […] Note that the quenching improves as glutathione is neutralized with increasing amounts of sodium hydroxide.
# The FACScan analysis of the binding of rabbit anti-acridine sera to treated red cells was used to assess a variety of quenching conditions. […] The tables represent data from two different experiments, each with samples treated under standard conditions or with 20 mM neutralized glutathione. […] The data within an experiment provides the relative efficacy of the various treatments. Because the assay may depend on the lot of red blood cells used, the absolute values of mean fluorescence may vary from one study to the next, such that relative values should only be compared within a given experiment. […] Neutralized glutathione at 20 mM results in close to background levels.
# An untreated control sample as well as a standard sample (co-addition of 2 mM acidic glutathione with 0.2 mM PIC-1) were also assessed.
# Full units of red cell concentrates (Interstate Blood Bank, Inc., Memphis, Tenn.) were leukoreduced. A volume of 200 mL of this RCC (80% hematocrit) was mixed with 94 mL of Erythrosol or 100 mL of Adsol (Baxter Healthcare Corp., Deerfield, Ill.) as control (unit 1). A volume of 20 mL 8% dextrose was used to dissolve PIC-1 (mg) and acid glutathione (mg) and added to one unit to provide 0.2 mM PIC-1 and 2 mM glutathione (unit 2). […] For the glutathione, 1.2 mL of 10 N NaOH was added (2 equivalents). The PIC-1 was mixed with the unit, followed 1 minute later (unit 3) or 5 minutes later (unit 4) by glutathione. For unit 5, neutralized glutathione was mixed first, followed 10 minutes later by the PIC-1. […] All units were mixed by grasping the ends of the blood bag and mixing in a FIG. 8 motion 30 times. These were then incubated at room temperature for 20 hours total. A compound adsorption device (CAD), comprising a polymeric resin contained within a mesh pouch, was used for all but the control sample. This device is intended to remove residual PIC-1, PIC-1 breakdown products, and glutathione from the samples. Samples were incubated for 8 hours, then transferred to a second blood bag containing the CAD and incubated for an additional 12 hours. Following the room temperature incubation, samples were transferred to a refrigerator (4° C.) and stored up to 43 days.
compound,measurement,setting,value
O=C(CCNc1c2ccccc2nc2ccccc12)OCCN(CCCl)CCCl [PIC-1],mean fluorescence,"16C day 0.8, unit 2: standard 0.2 mM PIC-1+2 mM GSH",284
same,mean fluorescence,"16C day 0.8, unit 3: 0.2 mM PIC-1, 1' delay, 20 mM GSH+2 eq base",20.1
same,mean fluorescence,"16C day 0.8, unit 4: 0.2 mM PIC-1, 5' delay, 20 mM GSH+2 eq base",46.0
same,mean fluorescence,"16C day 0.8, unit 5: 20 mM GSH+2 eq base, 10' delay, 0.2 mM PIC-1",20.0
same,mean fluorescence,"16C day 2, unit 2: standard 0.2 mM PIC-1+2 mM GSH",193.5
same,mean fluorescence,"16C day 2, unit 3: 0.2 mM PIC-1, 1' delay, 20 mM GSH+2 eq base",14.58
same,mean fluorescence,"16C day 2, unit 4: 0.2 mM PIC-1, 5' delay, 20 mM GSH+2 eq base",34.07
same,mean fluorescence,"16C day 2, unit 5: 20 mM GSH+2 eq base, 10' delay, 0.2 mM PIC-1",12.31
same,mean fluorescence,"16C day 7, unit 2: standard 0.2 mM PIC-1+2 mM GSH",142.1
same,mean fluorescence,"16C day 7, unit 3: 0.2 mM PIC-1, 1' delay, 20 mM GSH+2 eq base",4.96
same,mean fluorescence,"16C day 7, unit 4: 0.2 mM PIC-1, 5' delay, 20 mM GSH+2 eq base",18.84
same,mean fluorescence,"16C day 7, unit 5: 20 mM GSH+2 eq base, 10' delay, 0.2 mM PIC-1",5.34
same,mean fluorescence,"16C day 14, unit 2: standard 0.2 mM PIC-1+2 mM GSH",135.7
same,mean fluorescence,"16C day 14, unit 3: 0.2 mM PIC-1, 1' delay, 20 mM GSH+2 eq base",4.09
same,mean fluorescence,"16C day 14, unit 4: 0.2 mM PIC-1, 5' delay, 20 mM GSH+2 eq base",8.41
same,mean fluorescence,"16C day 14, unit 5: 20 mM GSH+2 eq base, 10' delay, 0.2 mM PIC-1",3.29
same,mean fluorescence,"16C day 22, unit 2: standard 0.2 mM PIC-1+2 mM GSH",90.8
same,mean fluorescence,"16C day 22, unit 3: 0.2 mM PIC-1, 1' delay, 20 mM GSH+2 eq base",2.61
same,mean fluorescence,"16C day 22, unit 4: 0.2 mM PIC-1, 5' delay, 20 mM GSH+2 eq base",4.46
same,mean fluorescence,"16C day 22, unit 5: 20 mM GSH+2 eq base, 10' delay, 0.2 mM PIC-1",2.12
same,mean fluorescence,"16C day 28, unit 2: standard 0.2 mM PIC-1+2 mM GSH",128.7
same,mean fluorescence,"16C day 28, unit 3: 0.2 mM PIC-1, 1' delay, 20 mM GSH+2 eq base",2.6
same,mean fluorescence,"16C day 28, unit 4: 0.2 mM PIC-1, 5' delay, 20 mM GSH+2 eq base",5.69
same,mean fluorescence,"16C day 28, unit 5: 20 mM GSH+2 eq base, 10' delay, 0.2 mM PIC-1",2.83
same,mean fluorescence,"16C day 35, unit 2: standard 0.2 mM PIC-1+2 mM GSH",153.4
same,mean fluorescence,"16C day 35, unit 3: 0.2 mM PIC-1, 1' delay, 20 mM GSH+2 eq base",2.74
same,mean fluorescence,"16C day 35, unit 4: 0.2 mM PIC-1, 5' delay, 20 mM GSH+2 eq base",6.71
same,mean fluorescence,"16C day 35, unit 5: 20 mM GSH+2 eq base, 10' delay, 0.2 mM PIC-1",2.58
same,mean fluorescence,"16C day 43, unit 2: standard 0.2 mM PIC-1+2 mM GSH",136.1
same,mean fluorescence,"16C day 43, unit 3: 0.2 mM PIC-1, 1' delay, 20 mM GSH+2 eq base",2.43
same,mean fluorescence,"16C day 43, unit 4: 0.2 mM PIC-1, 5' delay, 20 mM GSH+2 eq base",4.51
same,mean fluorescence,"16C day 43, unit 5: 20 mM GSH+2 eq base, 10' delay, 0.2 mM PIC-1",2.46
same,Mean fluorescence intensity,"RBC CHES pH 9 3x wash, 0.2 mM PIC-1, 2 mM GSH",12.1
same,Mean fluorescence intensity,"RBC CHES pH 9 3x wash, 0.2 mM PIC-1, 20 mM GSH+0.9 eq NaOH",3.9
same,Mean fluorescence intensity,"RBC CHES pH 9 3x wash, 0.2 mM PIC-1, 20 mM GSH+1.5 eq NaOH",1.9
same,Mean fluorescence intensity,"RBC CHES pH 9 3x wash, 0.2 mM PIC-1, 20 mM GSH+2 eq NaOH",1.9
same,Mean fluorescence intensity,"RBC Erythrosol pH 7.3 3x wash, 0.2 mM PIC-1, 2 mM GSH",199
same,Mean fluorescence intensity,"RBC Erythrosol pH 7.3 3x wash, 0.2 mM PIC-1, 20 mM GSH+0.9 eq NaOH",26.7
same,Mean fluorescence intensity,"RBC Erythrosol pH 7.3 3x wash, 0.2 mM PIC-1, 20 mM GSH+1.5 eq NaOH",4.9
same,Mean fluorescence intensity,"RBC Erythrosol pH 7.3 3x wash, 0.2 mM PIC-1, 20 mM GSH+2 eq NaOH",3.4
same,Mean fluorescence intensity,"RBC PBS pH 8 3x wash, 0.2 mM PIC-1, 2 mM GSH",25
same,Mean fluorescence intensity,"RBC PBS pH 8 3x wash, 0.2 mM PIC-1, 20 mM GSH+0.9 eq NaOH",7.2
same,Mean fluorescence intensity,"RBC PBS pH 8 3x wash, 0.2 mM PIC-1, 20 mM GSH+1.5 eq NaOH",5.1
same,Mean fluorescence intensity,"RBC PBS pH 8 3x wash, 0.2 mM PIC-1, 20 mM GSH+2 eq NaOH",5.1
same,Mean fluorescence intensity,"RBC in Erythrosol pH 7.3 no wash, 0.2 mM PIC-1, 2 mM GSH",108
same,Mean fluorescence intensity,"RBC in Erythrosol pH 7.3 no wash, 0.2 mM PIC-1, 20 mM GSH+0.9 eq NaOH",17.0
same,Mean fluorescence intensity,"RBC in Erythrosol pH 7.3 no wash, 0.2 mM PIC-1, 20 mM GSH+1.5 eq NaOH",8.1
same,Mean fluorescence intensity,"RBC in Erythrosol pH 7.3 no wash, 0.2 mM PIC-1, 20 mM GSH+2 eq NaOH",6.0
same,mean fluorescence,"Table 9A: 0.2 mM PIC-1+2 mM GSH, 0 eq NaOH, no delay (standard)",114
same,mean fluorescence,"Table 9A: 5 mM Cys+2 eq NaOH, then 0.2 mM PIC-1 after 5 min",8
same,mean fluorescence,"Table 9A: 5 mM Cys+2 eq NaOH, then 0.2 mM PIC-1 after 10 min",10.8
same,mean fluorescence,"Table 9A: 5 mM Cys+2 eq NaOH, then 0.2 mM PIC-1 after 20 min",8
same,mean fluorescence,"Table 9A: 10 mM Cys+2 eq NaOH, then 0.2 mM PIC-1 after 10 min",2.9
same,mean fluorescence,"Table 9A: 15 mM Cys+2 eq NaOH, then 0.2 mM PIC-1 after 10 min",1.9
same,mean fluorescence,"Table 9A: 20 mM Cys+2 eq NaOH, then 0.2 mM PIC-1 after 5 min",1.9
same,mean fluorescence,"Table 9A: 20 mM Cys+2 eq NaOH, then 0.2 mM PIC-1 after 10 min",1.9
same,mean fluorescence,"Table 9A: 20 mM Cys+2 eq NaOH, then 0.2 mM PIC-1 after 20 min",2
same,mean fluorescence,"Table 9A: 20 mM GSH+2 eq NaOH, then 0.2 mM PIC-1 after 10 min",2.6
same,mean fluorescence,"Table 9A: […] Cys+2 eq NaOH, then 0.2 mM PIC-1 after 10 min",37
same,mean fluorescence,"Table 9B: 0.2 mM PIC-1+2 mM GSH, 0 eq NaOH, no delay (standard)",160 and 151 and 182
same,mean fluorescence,"Table 9B: 5 mM Cys+1 eq NaOH, then 0.2 mM PIC-1 after 10 min",19.28
same,mean fluorescence,"Table 9B: 5 mM Cys+2 eq NaOH, then 0.2 mM PIC-1 after 10 min",14.1
same,mean fluorescence,"Table 9B: 5 mM Cys, 0 eq NaOH, then 0.2 mM PIC-1 after 10 min",49
same,mean fluorescence,"Table 9B: 10 mM Cys+1 eq NaOH, then 0.2 mM PIC-1 after 10 min",5.1
same,mean fluorescence,"Table 9B: 10 mM Cys+2 eq NaOH, then 0.2 mM PIC-1 after 10 min",3.6
same,mean fluorescence,"Table 9B: 10 mM Cys, 0 eq NaOH, then 0.2 mM PIC-1 after 10 min",11.6
same,mean fluorescence,"Table 9B: 20 mM Cys+1 eq NaOH, then 0.2 mM PIC-1 after 10 min",2.5
same,mean fluorescence,"Table 9B: 20 mM Cys, 0 eq NaOH, then 0.2 mM PIC-1 after 10 min",4.3
same,mean fluorescence,"Table 9B: 20 mM GSH+2 eq NaOH, then 0.2 mM PIC-1 after 10 min",6.06 and 5.62 and 5.6
same,mean fluorescence,"Table 9B: […] Cys+1 eq NaOH, then 0.2 mM PIC-1 after 10 min",49.5
same,mean fluorescence,"Table 9B: […] Cys+2 eq NaOH, then 0.2 mM PIC-1 after 10 min",49
same,mean fluorescence,"Table 9B: […] Cys, 0 eq NaOH, then 0.2 mM PIC-1 after 10 min",44
same,mean fluorescence,"Table 11C: 2 mM GSH, 1 eq. base, then 0.2 mM PIC-1",208.05
same,mean fluorescence,"Table 11C: 2 mM GSH, 2 eq. base, then 0.2 mM PIC-1",160.37
same,mean fluorescence,"Table 11C: 2 mM GSH, no added base, then 0.2 mM PIC-1",179.17
same,mean fluorescence,"Table 11C: 5 mM GSH, 1 eq. base, then 0.2 mM PIC-1",87.6
same,mean fluorescence,"Table 11C: 5 mM GSH, 2 eq. base, then 0.2 mM PIC-1",67.56
same,mean fluorescence,"Table 11C: 5 mM GSH, no added base, then 0.2 mM PIC-1",95.57
same,mean fluorescence,"Table 11C: 10 mM GSH, 1 eq. base, then 0.2 mM PIC-1",47.18
same,mean fluorescence,"Table 11C: 10 mM GSH, 2 eq. base, then 0.2 mM PIC-1",27.45
same,mean fluorescence,"Table 11C: 10 mM GSH, no added base, then 0.2 mM PIC-1",88.21
same,mean fluorescence,"Table 11C: 20 mM GSH, 1 eq. base, then 0.2 mM PIC-1",29.97
same,mean fluorescence,"Table 11C: 20 mM GSH, 2 eq. base, then 0.2 mM PIC-1",13.37
same,mean fluorescence,"Table 11C: 20 mM GSH, no added base, then 0.2 mM PIC-1",187.74
same,mean fluorescence,"Table 11C: co-addition std., 2 mM acidic glutathione with 0.2 mM PIC-1",144.33

# Reference: US7655392B2, “Quenching methods for red blood cell inactivation process” (priority 2004, dated 2010)
